Results published in article PMC7765952, “N-(Hydroxyalkyl) Derivatives of tris(1H-indol-3-yl)methylium Salts as Promising Antibacterial Agents: Synthesis and Biological Evaluation” (Pharmaceuticals, 2020).
Values after ≈ are worked out from the molar mass of the structure shown. Where two headings read alike, the source gives them in different places.

How the values were obtained:
[1] = substances with a known LogPow used for HPLC calibration; cited from earlier work
[2] = test system: S. aureus ATCC 25923; assay: MIC by microdilution, S. aureus ATCC 25923; type: cell-based; conditions: Staphylococcus aureus, ATCC25923
Method: (§1) Compounds were tested against Gram-positive and Gram-negative bacteria, including sensitive or drug resistant strains from American Type Culture Collection (ATCC), as well as resistant clinical isolates from the culture collection of the Laboratory for Control of Hospital Infections (Sechenov University, Moscow, Russia). Collection cultures of Gram-positive bacteria: Staphylococcus aureus ATCC 25923, Staphylococcus aureus ATCC 3798, Staphylococcus aureus ATCC 700,699 and clinical isolates of Gram-positive bacteria: Staphylococcus aureus 5, Staphylococcus aureus 10, Staphylococcus aureus 100 KS, Staphylococcus epidermidis 533, Enterococcus faecium 569 and collection cultures of Gram-negative bacteria: Escherichia coli ATCC 25922, Klebsiella pneumoniae ATCC 13883, Salmonella cholerasuis ATCC 14,028 were used.
(§2) For the cultivation of the strains, various nutrient media were used: Trypticase Soy Agar BBL for Staphylococcus sp., E. coli, K. pneumoniae, S. cholerasuis and Columbia Agar Base BBL for the cultivation of Enterococcus sp. Cultures grown on appropriate nutrient media at 35 °C for 1 day were used to set up experiments. For determination of the antibacterial action Mueller-Hinton (Acumedia, Baltimore, MD, USA) liquid medium was used. The minimum inhibitory concentrations (MIC) were determined by the microdilution method in 96 well sterile plates in a cation-adjusted Müller-Hinton medium in accordance with the requirements of the Institute of Clinical and Laboratory Standards (CLSI/NCCLS). MIC was defined as the minimum drug concentration that completely prevents the growth of the test organism.

[3] = test system: S. aureus 10; assay: MIC by microdilution, S. aureus 10; type: cell-based; conditions: Staphylococcus aureus
Method: as §1, §2

[4] = test system: S. aureus 5; assay: MIC by microdilution, S. aureus 5; type: cell-based; conditions: Staphylococcus aureus
Method: as §1, §2

[5] = test system: S. aureus 100 KC; assay: MIC by microdilution, S. aureus 100 KC; type: cell-based; conditions: Staphylococcus aureus
Method: as §1, §2

[6] = test system: S. aureus ATCC 3798; assay: MIC by microdilution, S. aureus ATCC 3798; type: cell-based; conditions: Staphylococcus aureus, ATCC3798
Method: as §1, §2

[7] = test system: S. aureus ATCC 700699; assay: MIC by microdilution, S. aureus ATCC 700699; type: cell-based, Staphylococcus aureus
Method: as §1, §2

[8] = test system: S. epidermidis 533; assay: MIC by microdilution, S. epidermidis 533; type: cell-based; conditions: Staphylococcus epidermidis
Method: as §1, §2

[9] = test system: E. faecium 569; assay: MIC by microdilution, E. faecium 569; type: cell-based, Enterococcus faecium
Method: as §1, §2

[10] = test system: E. coli ATCC 25922; assay: MIC by microdilution, E. coli ATCC 25922; type: cell-based, Escherichia coli
Method: as §1, §2

[11] = test system: K. pneumoniae ATCC 13883; assay: MIC by microdilution, K. pneumoniae ATCC 13883; type: cell-based; conditions: Klebsiella pneumoniae, ATCC13883
Method: as §1, §2

[12] = test system: S. cholerasuis ATCC 14028; assay: MIC by microdilution, S. cholerasuis ATCC 14028; type: cell-based; conditions: Salmonella, ATCC14028
Method: as §1, §2

[13] = test system: P. aeruginosa ATCC 27853; assay: MIC by microdilution, P. aeruginosa ATCC 27853; type: cell-based; conditions: Pseudomonas aeruginosa, ATCC27853
Method: as §2

[14] = Determination of lipophilicity, LogPow by HPLC method; type: physicochemical; conditions: experimental, pH 7.4
Source text: We used the partition coefficient as an indicator of lipophilicity. The partition coefficient (P) is defined as the ratio of the equilibrium solute concentrations in a two-phase system of immiscible solvents. The most common in practice is the octanol-water (Pow) system. The partition coefficient is usually represented as a decimal logarithm (LogPow). It can be measured in several ways. A most advanced, accurate, and less time-consuming is the HPLC method for determining Pow using high-performance liquid chromatography. HPLC is performed on an analytical column with a solid phase containing long hydrocarbon chains chemically bound to silica gel. The retention time on such a column (Rt) is directly related to the partition coefficient Pow. The most informative in our case was the partition coefficient at a physiological pH value of 7.4. It was at this pH that the main biological experiments with the studied substances were carried out, namely tests of antimicrobial activity and cytotoxicity. HPLC was performed on a Shimadzu LC-20AD system using Kromasil-100-5-C18 (Akzo-Nobel) column, 4.6 × 250 mm, 20 °C temperature, UV detection, mobile phase A—0.2% HCOONH4), mobile phase B-MeCN, (pH 7.4), fl-1 mL/min., loop 20 mkl. After calibration using substances with a known LogPow, it is possible to recalculate Rt to LogPow. For calibration, we used aniline (LogPow 0.9), p-chloroaniline (LogPow 1.8), diphenylamine (LogPow 3.4), triphenylamine (LogPow 5.7).

[15] = test system: Gram-positive and Gram-negative bacteria; assay: Antibacterial activity in vitro, strain panel in general; type: cell-based; conditions: general statement over the strain panel
Method: as §1, §2

[16] = S. aureus ATCC 25923, sensitive to all antibiotics, read-out: MIC
[17] = clinical isolate S. aureus 10, sensitive to all antibiotics, read-out: MIC
[18] = S. aureus 5, methicillin resistant (MRSA) clinical isolate, read-out: MIC
[19] = S. aureus 100 KC, methicillin resistant (MRSA) clinical isolate, read-out: MIC
[20] = S. aureus ATCC 3798, multiresistant incl. ciprofloxacin, levofloxacin, read-out: MIC
[21] = Staphylococcus aureus, ATCC700699, S. aureus ATCC 700699, resistant to levofloxacin, read-out: MIC
[22] = S. epidermidis 533, resistant to gentamicin, read-out: MIC
[23] = Enterococcus faecium, E. faecium 569, resistant to cefuroxime, clindamycin, gentamycin, vancomycin, doxycycline, read-out: MIC
[24] = Escherichia coli, ATCC25922, E. coli ATCC 25922, read-out: MIC
[25] = K. pneumoniae ATCC 13883, read-out: MIC
[26] = S. cholerasuis ATCC 14028, read-out: MIC
[27] = P. aeruginosa ATCC 27853, read-out: MIC
[28] = S. aureus ATCC 700699, resistant to levofloxacin

SMILES | LogPow of calibration substances [1] | MIC [2, 16] [µg/mL] | MIC [3, 17] [µg/mL] | MIC [4, 18] [µg/mL] | MIC [5, 19] [µg/mL] | MIC [6, 20] [µg/mL] | MIC [7, 21] [µg/mL] | MIC [8, 22] [µg/mL] | MIC [9, 23] [µg/mL] | MIC [10, 24] [µg/mL] | MIC [11, 25] [µg/mL] | MIC [12, 26] [µg/mL] | MIC [13, 27] [µg/mL] | LogPow [14] | other results
c1ccc(N(c2ccccc2)c2ccccc2)cc1 [triphenylamine] | 5.7 |  |  |  |  |  |  |  |  |  |  |  |  |  | 
Nc1ccc(Cl)cc1 [p-chloroaniline] | 1.8 |  |  |  |  |  |  |  |  |  |  |  |  |  | 
C[C@H]1COc2c(N3CCN(C)CC3)c(F)cc3c(=O)c(C(=O)O)cn1c23 [Lf, levofloxacin, reference compound] |  | 0.25 (≈ 0.692 µM) | 0.13 (≈ 0.36 µM) | 0.25 (≈ 0.692 µM) | 32 (≈ 88.6 µM) | 32 (≈ 88.6 µM) | 16 (≈ 44.3 µM) | 0.5 (≈ 1.38 µM) | 1 (≈ 2.77 µM) | 0.06 (≈ 0.166 µM) | 0.25 (≈ 0.692 µM) | 0.13 (≈ 0.36 µM) | 1 (≈ 2.77 µM) |  | 
c1ccc(Nc2ccccc2)cc1 [diphenylamine] | 3.4 |  |  |  |  |  |  |  |  |  |  |  |  |  | 
OCCCn1cc([C+](c2cn(CCCO)c3ccccc23)c2cn(CCCO)c3ccccc23)c2ccccc21.[Cl-] [8b, tris(1-(3-Hydroxypropyl)-1H-indol-3-yl)methylium chloride] |  | 32 | 8 | 16 | 16 | 16 | > 64 | 32 | 32 | > 64 | > 64 | > 64 | > 64 | 1.2 | 
OCCn1cc([C+](c2cn(CCO)c3ccccc23)c2cn(CCO)c3ccccc23)c2ccccc21.[Cl-] [8a, tris(1-(2-Hydroxyethyl)-1H-indol-3-yl)methylium chloride] |  | 32 | 16 | 64 | 64 | 32 | 32 | 32 | > 64 | 16 | > 64 | > 64 | > 64 | 1.15 | 
OCCCCn1cc([C+](c2cn(CCCCO)c3ccccc23)c2cn(CCCCO)c3ccccc23)c2ccccc21.[Cl-] [8c, tris(1-(4-Hydroxybutyl)-1H-indol-3-yl)methylium chloride] |  | 16 | 8 | 8 | 16 | 16 | 8 | 16 | > 64 | 32 | 8 | > 64 | > 64 | 2.9 | 
CCN(CC)c1ccc(C(=C2C=CC(=[N+](CC)CC)C=C2)c2ccccc2)cc1 [BG, brilliant green, reference compound] |  |  |  |  |  |  |  |  |  |  |  |  |  |  | MIC [2]: 0.06 µg/mL; MIC [3]; 10: 0.13 µg/mL; MIC ([4]; MRSA): 0.06 µg/mL; MIC ([5]; MRSA): 0.06 µg/mL; MIC [6]: 0.06 µg/mL; MIC ([7]; Staphylococcus aureus, ATCC700699): 1 µg/mL; MIC [8]; 533: 0.06 µg/mL; MIC ([9]; Enterococcus faecium, 569): 0.25 µg/mL; MIC ([10]; Escherichia coli, ATCC25922): 4 µg/mL; MIC [11]: 8 µg/mL; MIC [12]: 16 µg/mL; MIC [13]: > 64 µg/mL
OCCCCCCn1cc([C+](c2cn(CCCCCCO)c3ccccc23)c2cn(CCCCCCO)c3ccccc23)c2ccccc21.[Cl-] [8e, tris(1-(6-hydroxyhexyl)-1H-indol-3-yl)methylium chloride] |  | 0.5 | 0.5 | 0.5 | 0.5 | 0.5 | 0.5 | 0.5 | > 64 | 8 | 8 | > 64 | > 64 | 5.4 | MIC [7, 28]: active; MIC ([9]; E. faecium 569, resistant to cefuroxime, clindamycin, gentamycin, vancomycin, doxycycline): >64 µg/mL; MIC ([10]; E. coli ATCC 25922): moderate level of activity; MIC (antibacterial activity, strains not specified) [15]: highly active against Gram-positive bacteria; MIC ([15]; read-out: MIC (antibacterial activity, strains not specified)): 0.5 µg/mL
OCCCCCn1cc([C+](c2cn(CCCCCO)c3ccccc23)c2cn(CCCCCO)c3ccccc23)c2ccccc21.[Cl-] [8d, tris(1-(5-Hydroxypentyl)-1H-indol-3-yl)methylium chloride] |  | 2 | 1 | 4 | 2 | 2 | 2 | 1 | 8 | 8 | 2 | > 64 | > 64 | 4 | MIC [7, 28]: active; MIC ([10]; E. coli ATCC 25922): moderate level of activity; MIC (antibacterial activity, strains not specified) [15]: highly active against Gram-positive bacteria
Nc1ccccc1 [aniline] | 0.9 |  |  |  |  |  |  |  |  |  |  |  |  |  | 
